Measured values from patent EP0326640B1, “(1R,5S,6S)-2-substituted thio-6 (R)-1-hydroxyethyl -1-methyl-carbapenem - carboxylic acid derivatives” (LEDERLE (JAPAN) LTD., priority 1987, dated 1989).
≈ marks a conversion by molar mass, not a printed value.

Columns and labels:
Format in all cases: cell-based
Salmonella typhi 901 = experiment: Antibacterial test, agar plate dilution method (MIC), standard strains; settings: Salmonella enterica, TYPHI, 18 h, MH agar, 37°C
Procedure: (§1) The antibacterial activities were tested by an agar plate dilution method in accordance with the standard method of The Japanese Chemotherapy Society [Chemotherapy, Vol. 29, 76-79 (1981)].
(§2) A Mueller-Hinton (MH) agar liquid medium of a test microorganism was cultured overnight at 37°C and the resultant culture medium was diluted with a buffered saline gelatin (BSG) solution to contain approximately 10⁶ cells of the test microorganisms per milliliter, and then the diluted solution was inoculated with a microplanter at the rate of approximately 5 microliters on a MH agar medium containing a test compound. This medium was then incubated at 37°C for 18 hours. The minimum inhibitory concentration (MIC) is determined as a minimum concentration in which no test microorganism could grow. It is noted here that the test organisms used were all standard strains.

[1] = test system: Serratia marcescens IAM1184; experiment: as above; settings: Serratia marcescens, IAM1184, 18 h, MH agar, 37°C, read-out: MIC
Procedure: as §1, §2

[2] = test system: Morganella morganii IFO3848; experiment: as above; settings: Morganella morganii, IFO3848, 18 h, MH agar, 37°C, read-out: MIC
Procedure: as §1, §2

Proteus vulgaris OX-19 = experiment: as above; settings: OX19; Proteus vulgaris OX-19; MH agar, 37°C, 18 hours; read-out: MIC
Procedure: as §1, §2

[3] = test system: Salmonella paratyphi 1015; experiment: as above; settings: Salmonella enterica, MH agar, 37°C, 18 hours, read-out: MIC
Procedure: as §1, §2

[4] = test system: Providencia rettgeri IFO 3850; experiment: as above; settings: Providencia rettgeri, IFO3850, 18 h, MH agar, 37°C, read-out: MIC
Procedure: as §1, §2

[5] = test system: Pseudomonas aeruginosa IFO 3445; experiment: as above; settings: IFO3445, MH agar, 37°C, 18 hours, read-out: MIC
Procedure: as §1, §2

[6] = test system: Pseudomanas aeruginosa NCTC 10940; experiment: as above; settings: 18 h, MH agar, 37°C, read-out: MIC
Procedure: as §1, §2

[7] = test system: Proteus mirabilis IFO3849; experiment: as above; settings: Proteus mirabilis, IFO3849, 18 h, Proteus mirabilis IFO3849; MH agar, 37°C, 18 hours; read-out: MIC
Procedure: as §1, §2

[8] = test system: Salmonella enteritidis G14; experiment: as above; settings: Salmonella enterica, MH agar, 37°C, 18 hours, read-out: MIC
Procedure: as §1, §2

[9] = test system: Salmonella schottmuelleri 8006; experiment: as above; settings: MH agar, 37°C, 18 hours, read-out: MIC
Procedure: as §1, §2

Proteus vulgaris HX-19 = experiment: as above; settings: HX19; Proteus vulgaris HX-19; MH agar, 37°C, 18 hours; read-out: MIC
Procedure: as §1, §2

Proteus vulgaris GN 7919 = experiment: Antibacterial activity against clinically isolated β-lactamase (cephalosporinase) producing strains (MIC); settings: Proteus vulgaris, GN7919, Proteus vulgaris GN 7919; cephalosporinase producing strain, SDA, 18 to 20 hours; read-out: MIC
Procedure: (§3) The antibacterial activities against clinically isolated β-lactamase producing strains were tested by the agar plate dilution method in accordance with the standard method of The Japanese Chemotherapy Society [Chemotherapy, Vol. 29, 76-79 (1981)]. A solution of a cephalosporinase producing strain stored by Episome Research Institute, prepared by incubating the strain in a sensitivity test broth (STB; product of Nissui K. K.) for 18 hours, was diluted with a fresh STB solution so that the solution contained 10⁶ cells per milliliter. The diluted solution was then inoculated as spots in a microplanter on a sensitivity disk agar-N (SDA; product of Nissui K. K.) containing a test compound. The disk agar was then incubated for 18 to 20 hours. The minimum inhibitory concentration was determined as a minimum concentration in which the test microorganism no longer grew after a 18 to 20-hour incubation.

[10] = test system: Pseudomonas aeruginosa GN 10362; experiment: as above; settings: GN10362, cephalosporinase producing strain, SDA, 18 to 20 hours, read-out: MIC
Procedure: as §3

Serratia marcescens L-82 = experiment: as above; settings: L82, cephalosporinase producing strain, SDA, 18 to 20 hours, read-out: MIC
Procedure: as §3

[11] = test system: Citrobactor freundii GN 346; experiment: as above; settings: cephalosporinase producing strain, SDA, 18 to 20 hours
Procedure: as §3

[12] = test system: Serratia marcescens GN 10857; experiment: as above; settings: Serratia marcescens, GN10857, Serratia marcescens GN 10857; cephalosporinase producing strain, SDA, 18 to 20 hours; read-out: MIC
Procedure: as §3

[13] = test system: Pseudomonas aeruginosa GN 10367; experiment: as above; settings: GN10367; Pseudomonas aeruginosa GN 10367; cephalosporinase producing strain, SDA, 18 to 20 hours; read-out: MIC
Procedure: as §3

[14] = test system: Klebsiella oxytoca GN 10650; experiment: as above; settings: Klebsiella oxytoca, GN10650, Klebsiella oxytoca GN 10650; cephalosporinase producing strain, SDA, 18 to 20 hours; read-out: MIC
Procedure: as §3

[15] = test system: Pseudomonas aeruginosa GN 918; experiment: as above; settings: GN918; Pseudomonas aeruginosa GN 918; cephalosporinase producing strain, SDA, 18 to 20 hours; read-out: MIC
Procedure: as §3

[16] = test system: Pseudomonas cepacia GN 11164; experiment: as above; settings: Burkholderia cepacia, GN11164, cephalosporinase producing strain, SDA, 18 to 20 hours, read-out: MIC
Procedure: as §3

Proteus vulgaris GN 4413 = experiment: as above; settings: Proteus vulgaris, GN4413, Proteus vulgaris GN 4413; cephalosporinase producing strain, SDA, 18 to 20 hours; read-out: MIC
Procedure: as §3

[17] = test system: Citrobactor freundii GN 7391; experiment: as above; settings: cephalosporinase producing strain, SDA, 18 to 20 hours
Procedure: as §3

Serratia marcescens L-65 = experiment: as above; settings: Serratia marcescens, L65, Serratia marcescens L-65; cephalosporinase producing strain, SDA, 18 to 20 hours; read-out: MIC
Procedure: as §3

With `Cc1nnc(SCC2=C(C(=O)O)N3C(=O)[C@@H](NC(=O)Cn4cnnn4)[C@H]3SC2)s1` [CEZ, cefazolin] the MIC (Salmonella typhi 901) was 0.78 µg/mL (≈ 1.72 µM), the MIC [1] was > 100 µg/mL and the MIC [2] was 25 µg/mL (≈ 55 µM). The MIC (Proteus vulgaris OX-19) was 6.25 µg/mL (≈ 13.8 µM), the MIC [3] was 1.56 µg/mL (≈ 3.43 µM) and the MIC [4] was 12.5 µg/mL (≈ 27.5 µM). The MIC [5] was > 100 µg/mL, the MIC [6] was > 100 µg/mL and the MIC [7] was 6.25 µg/mL (≈ 13.8 µM). The MIC [8] was 0.78 µg/mL (≈ 1.72 µM), the MIC [9] was 0.78 µg/mL (≈ 1.72 µM) and the MIC (Proteus vulgaris HX-19) was 6.25 µg/mL (≈ 13.8 µM). The MIC (Proteus vulgaris GN 7919) was 3.13 µg/mL (≈ 6.89 µM), the MIC [10] was 3.13 µg/mL (≈ 6.89 µM) and the MIC (Serratia marcescens L-82) was 0.39 µg/mL (≈ 0.858 µM). It also gave an MIC [11] of 25 µg/mL (≈ 55 µM), an MIC [12] of 0.78 µg/mL (≈ 1.72 µM) and an MIC [13] of 3.13 µg/mL (≈ 6.89 µM). It also gave an MIC [14] of 0.2 µg/mL (≈ 0.44 µM), an MIC [15] of 6.25 µg/mL (≈ 13.8 µM) and an MIC [16] of 0.78 µg/mL (≈ 1.72 µM). The MIC (Proteus vulgaris GN 4413) was 0.2 µg/mL (≈ 0.44 µM), the MIC [17] was >100 µg/mL and the MIC (Serratia marcescens L-65) was 0.2 µg/mL (≈ 0.44 µM).
